# Square brackets hold non-standard residues; d marks the D form. Ends that are not written are not given here. * marks the point of attachment. Azp = azidopentanoic acid, [N-]=[N+]=NCCCCC(=O)*; Cit = NC(=O)NCCC[C@H](N)C(=O)O
# What was measured:
# T cells = experiment: In vitro T cell recognition of modified E7 and Reps1 peptide antigen fragments; format: cell-based; settings: E7 (RAHYNIVTF) and Reps1 (AQLANDVVL) fragments modified at N- or C-terminus; FIGS. 28A and B
# From the text: To study the impact of the solubilizing block and extensions on peptide antigen recognition by T cells in vitro, two model antigens, E7 ([…]) and Reps1 ([…]), modified at the N-terminal and/or C-terminal positions were produced by solid-phase peptide synthesis (Tables 25 and 26), and then screened in vitro for T cell recognition (FIG. 28).
# [1] = tested on: antigen specific CD4 T cells expressing FOXP3; experiment: Proportion of T cells expressing Tbet or Foxp3; Treg induction by tolerance vaccines with inhibitors and immunostimulants; format: cell-based
# OT-II cells = experiment: In vitro induction of regulatory T cells by tolerance vaccine formulations in co-culture of CD11c+ APCs and OT-II cells, flow cytometry; format: cell-based; settings: 500 nM peptide antigen conjugate, three days
# [2] = format: physicochemical; settings: pH 7.4
# [3] = pH-responsiveness of carboxylic acid amphiphiles by turbidity (OD at 490 nm); format: physicochemical; settings: 0.1 mM in 1×PBS at pH 7.4, 7.0 or 6.5
# [4] = Torin-1 combined with TLR-7/8a 2BXy, peptide antigen conjugate 500 nM
molecule,measurement,setting,value
"341: ""modification of the C-terminus of peptide antigen fragments (e.g., Compounds 341 and 362) is more well tolerated"" (RAHYNIVTFSV[Cit][Azidolysine]-NH2) [Compound 341]",potency for T cell recognition,T cells,more well tolerated
"343: ""modification of the N-terminus of peptide antigen fragments (e.g., Compounds, 343 and 364) negatively impacts potency"" (Azp-V[Cit]RAHYNIVTFS-NH2; SMILES CC[C@H](C)[C@H](NC(=O)[C@H](CC(N)=O)NC(=O)[C@H](Cc1ccc(O)cc1)NC(=O)[C@H](Cc1c[nH]cn1)NC(=O)[C@H](C)NC(=O)[C@H](CCCNC(=N)N)NC(=O)[C@H](CCCNC(N)=O)NC(=O)[C@@H](NC(=O)CCCCN=[N+]=[N-])C(C)C)C(=O)N[C@H](C(=O)N[C@H](C(=O)N[C@@H](Cc1ccccc1)C(=O)N[C@@H](CO)C(N)=O)[C@@H](C)O)C(C)C) [Compound 343]",potency for T cell recognition,T cells,negatively impacts potency
"364: ""modification of the N-terminus of peptide antigen fragments (e.g., Compounds, 343 and 364) negatively impacts potency"" (Azp-V[Cit]AQLANDVVL-NH2; SMILES CC(C)C[C@H](NC(=O)[C@@H](NC(=O)[C@@H](NC(=O)[C@H](CC(=O)O)NC(=O)[C@H](CC(N)=O)NC(=O)[C@H](C)NC(=O)[C@H](CC(C)C)NC(=O)[C@H](CCC(N)=O)NC(=O)[C@H](C)NC(=O)[C@H](CCCNC(N)=O)NC(=O)[C@@H](NC(=O)CCCCN=[N+]=[N-])C(C)C)C(C)C)C(C)C)C(N)=O) [Compound 364]",potency for T cell recognition,T cells,negatively impacts potency
"CCC(=O)N1CCN(c2ccc(-n3c(=O)ccc4cnc5ccc(-c6cnc7ccccc7c6)cc5c43)cc2C(F)(F)F)CC1 [Torin-1, Torin 1]",Magnitude of Tregs induced by tolerance vaccines,"[1]; Torin-1 combined with TLR-7/8a 2BXy, versus other immunostimulants",highest magnitude Treg responses
same,"Magnitude of Treg responses, fold higher than Torin-1 alone",[1]; [4],2 fold
same,"Magnitude of Treg responses, fold higher than the vaccine without Torin-1",[1]; [4],8 fold
same,Proportion of antigen specific CD4 T cells expressing FOXP3,"[1]; compared with SR1555, rapamycin and ITE, peptide antigen conjugate 500 nM",higher proportion of antigen specific CD4 T cells expressing FOXP3
same,proportion of Tregs (Treg/Tbet) relative to formulations with rapamycin,OT-II cells,2-4 fold
same,number and proportion of Tregs induced,"OT-II cells; vaccines with inhibitor vs without inhibitors, FIGS. 25 and 26",significantly higher
KKKKKKK-SGSGSGSGSGSGSGSGSGSGSGSG-(Lys(N3-DBCO))-Ahx-(F′)5 [Compound 91],"Size (diameter, nm)",[2],477 nm
{Succinic acid}4K2K{Lys(N3-DBCO)}-Ahx-2B3W2 [Compound 274],pH-responsiveness: aggregation / particle size stability by turbidity (OD at 490 nm),[3],stable particle sizes down to at least pH 7.0

# Source: patent publication US20250127887A1 (priority 2021, published 2025)
